Assay results taken from patent US20220056018A1, “SREBP INHIBITORS COMPRISING A THIOPHENE CENTRAL RING” (Capulus Therapeutics, LLC, priority 2019, published 2022).

Legend:
SW620 = experiment: Cancer cell growth inhibition; type: cell-based; details: Homo sapiens, SW-620; SW620 (colon), 72 hr treatment
Procedure, shortened: (§1)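 SRB protein-stain readout after 72 hr treatment; 1 point/conc; DMSO stocks 10 mM–0.1 uM (six 10-fold steps), DMSO 0.1% final; IC50, GI50, IC10, TGI, LC50, IC90, GI90 derived where calculable.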

BT20 = experiment: Cancer cell growth inhibition; type: cell-based; details: Homo sapiens, BT-20; BT20 (breast), 72 hr treatment
Procedure, shortened: as §1

COLO678 = experiment: Cancer cell growth inhibition; type: cell-based; details: Homo sapiens, COLO-678; COLO678 (colon), 72 hr treatment
Procedure, shortened: as §1

MT3 = experiment: Cancer cell growth inhibition; type: cell-based; details: MT-3; MT3 (breast), 72 hr treatment
Procedure, shortened: as §1

HT1080 = experiment: Cancer cell growth inhibition; type: cell-based; details: Homo sapiens, HT-1080; HT1080 (connective tissue), 72 hr treatment
Procedure, shortened: as §1

SNB75 = experiment: Cancer cell growth inhibition; type: cell-based; details: Homo sapiens, SNB-75; SNB75 (brain), 72 hr treatment
Procedure, shortened: as §1

TE671 = experiment: Cancer cell growth inhibition; type: cell-based; details: Homo sapiens, TE-671; TE671 (muscle), 72 hr treatment
Procedure, shortened: as §1

A204 = experiment: Cancer cell growth inhibition; type: cell-based; details: Homo sapiens; A204 (muscle), 72 hr treatment
Procedure, shortened: as §1

CLS439 = experiment: Cancer cell growth inhibition; type: cell-based; details: CLS439 (bladder), 72 hr treatment
Procedure, shortened: as §1

SKHEP1 = experiment: Cancer cell growth inhibition; type: cell-based; details: Homo sapiens, SK-HEP1; SKHEP1 (liver), 72 hr treatment
Procedure, shortened: as §1

OVCAR4 = experiment: Cancer cell growth inhibition; type: cell-based; details: Homo sapiens, OVCAR-4; OVCAR4 (ovary), 72 hr treatment
Procedure, shortened: as §1

RDES = experiment: Cancer cell growth inhibition; type: cell-based; details: RD-ES; RDES (bone), 72 hr treatment
Procedure, shortened: as §1

LOVO = experiment: Cancer cell growth inhibition; type: cell-based; details: Homo sapiens; LOVO (colon), 72 hr treatment
Procedure, shortened: as §1

SF268 = experiment: Cancer cell growth inhibition; type: cell-based; details: Homo sapiens, SF-268; SF268 (brain), 72 hr treatment
Procedure, shortened: as §1

SKOV3 = experiment: Cancer cell growth inhibition; type: cell-based; details: Homo sapiens, SK-OV-3; SKOV3 (ovary), 72 hr treatment
Procedure, shortened: as §1

DLD1 = experiment: Cancer cell growth inhibition; type: cell-based; details: Homo sapiens, DLD-1; DLD1 (colon), 72 hr treatment
Procedure, shortened: as §1

MDAMB436 = experiment: Cancer cell growth inhibition; type: cell-based; details: Homo sapiens, MDA-MB-436; MDAMB436 (breast), 72 hr treatment
Procedure, shortened: as §1

MIAPACA2 = experiment: Cancer cell growth inhibition; type: cell-based; details: Homo sapiens, MIA PaCa-2; MIAPACA2 (pancreas), 72 hr treatment
Procedure, shortened: as §1

HCT116 = experiment: Cancer cell growth inhibition; type: cell-based; details: Homo sapiens, HCT-116; HCT116 (colon), 72 hr treatment
Procedure, shortened: as §1

[1] = Stability in human liver microsomes; type: in vitro ADME; details: 37° C., NADPH
Procedure, shortened: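 Compound from a 100 μM working solution was preincubated 10 min at 37 °C with human liver microsomes (added at 3.33 mg/mL) in 100 mM potassium phosphate. Incubation then ran 60 min at 37 °C with NADPH (2.85 mM cofactor solution), alongside a no-cofactor 60-min control and a 0-min sample. Parent compound was quantified by LC-MS/MS after acetonitrile quench for half-life.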

IC50 (SW620) [µM]	IC50 (BT20) [µM]	IC50 (COLO678) [µM]	IC50 (MT3) [µM]	IC50 (HT1080) [µM]	IC50 (SNB75) [µM]	IC50 (TE671) [µM]	IC50 (A204) [µM]	IC50 (CLS439) [µM]	IC50 (SKHEP1) [µM]	IC50 (OVCAR4) [µM]	IC50 (RDES) [µM]	IC50 (LOVO) [µM]	IC50 (SF268) [µM]	IC50 (SKOV3) [µM]	IC50 (DLD1) [µM]	IC50 (MDAMB436) [µM]	IC50 (MIAPACA2) [µM]	IC50 (HCT116) [µM]	percent of compound remaining after 60 min in human liver microsomes [1]	SMILES
> 10	> 10	< 10	< 10	< 10	> 10	< 10	< 10	> 10	< 10	< 10	> 10	< 10	< 10	> 10	< 10	> 10	> 10	< 10	++ (30.1-60 = ++)	CC(C)(CO)c1cc(-c2csc(-c3ccc(NS(C)(=O)=O)cc3Cl)c2)ccn1 [Compound I-8909, N-(3-chloro-4-(4-(2-(1-hydroxy-2-methylpropan-2-yl)pyridin-4-yl)thiophen-2-yl)phenyl)methanesulfonamide]
< 10	< 10	< 10	< 10	< 10	> 10	< 10	< 10	< 10	< 10	< 10	< 10	< 10	< 10	< 10	< 10	< 10	< 10	< 10	+++ (>60.1 = +++)	CS(=O)(=O)Nc1ccc(-c2cc(-c3ccnc4c3OCCO4)cs2)c(Cl)c1 [Compound I-9017, N-(3-chloro-4-(4-(2,3-dihydro-[1,4]dioxino[2,3-b]pyridin-8-yl)thiophen-2-yl)phenyl)methanesulfonamide]
> 10	> 10	< 10	< 10	< 10	> 10	< 10	> 10	> 10	< 10	< 10	> 10	< 10	< 10	> 10	< 10	< 10	> 10	< 10	+++ (>60.1 = +++)	CC(C)(O)Cc1cc(-c2csc(-c3ccc(NS(C)(=O)=O)cc3Cl)c2)ccn1 [Compound I-9004, N-(3-chloro-4-(4-(2-(2-hydroxy-2-methylpropyl)pyridin-4-yl)thiophen-2-yl)phenyl)methanesulfonamide]
